From PubChem BioAssay (NCI)
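A five-concentration, 48-hour dose response in 96-well plates underlies each endpoint, interpolated linearly between surrounding concentrations. TGI denotes the concentration required for complete inhibition of growth.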

How the values were obtained:
Test in all cases: NCI tumour cell line growth inhibition, 48 h
[1] = system: M19-MEL melanoma
[2] = system: LXFL 529 NSCLC
[3] = system: XF 498 CNS
[4] = system: DMS 273 small cell lung
[5] = system: HOP-18 NSCLC
[6] = system: SNB-78 CNS
[7] = system: RXF-631 renal
[8] = system: P388 leukemia
[9] = system: P388/ADR leukemia
[10] = system: SN12K1 renal

| Structure (SMILES) | TGI [1] | TGI [2] | TGI [3] | TGI [4] | TGI [5] | TGI [6] | TGI [7] | TGI [8] | TGI [9] | TGI [10] |
| --- | --- | --- | --- | --- | --- | --- | --- | --- | --- | --- |
| CCCC(C(=O)OC)C1N=C(NC#N)N(Cc2ccccc2)C1=O (stereo not drawn) | > 100 µM | > 100 µM | > 100 µM | > 100 µM | – | – | – | – | – | – |
| CC(C)C(CCOS(=O)(=O)O)CCC(C)[C@H]1[C@@H](O)C(O)C2[C@]3(O)C[C@@H](O)C4(O)C[C@@H](O)CC[C@]4(C)C3CC[C@@]21C (stereo partly drawn) | > 100 µM | > 100 µM | > 100 µM | > 100 µM | > 100 µM | > 100 µM | – | – | – | – |
| CC1CCc2c(sc3ncnc(N/N=C/c4ccc(Cl)cc4)c23)C1 (stereo not drawn) | – | – | – | > 100 µM | – | – | – | – | – | – |
| CC(N)C(C)c1ccccc1 (stereo not drawn) | – | > 100 µM | > 100 µM | > 100 µM | > 100 µM | > 100 µM | – | – | – | – |
| COc1ccc(-c2cc(=O)c3cc(O)ccc3o2)c(OC)c1OC | > 100 µM | > 100 µM | > 100 µM | – | – | – | > 100 µM | – | – | – |
| NC(CSCSCC(N)C(=O)O)C(=O)O (stereo not drawn) | > 225 µM | – | > 225 µM | > 225 µM | > 225 µM | > 104 µM | – | > 71.2 µM | > 225 µM | > 225 µM |
| C/C(CCN(C)C)=N\OC(=O)c1ccccc1 | > 100 µM | > 100 µM | – | > 100 µM | 8.9 µM | > 100 µM | – | – | – | – |
